Structures can show the parent of a compound that is named as a salt.
Legend:
isolated rabbit aorta = assay: isolated rabbit aorta: contraction of aorta rings depolarized with potassium chloride after pretreatment with the test substance; settings: Oryctolagus cuniculus, concentration of 10^-6 M, KCl-depolarized aorta rings
Description: Their calcium antagonistic or calcium agonistic action can be shown using the model of the isolated rabbit aorta. This entails aorta rings being depolarized with potassium chloride, whereupon they contract. Pretreatment with the test substance is followed by a diminution in contraction in the case of the compounds acting as calcium antagonists, but by an intensification of contraction in the case of compounds acting as calcium agonists. For example, the compound from Example 2 at a concentration of 10^-6 M results in a 32% diminution in contraction. The compound from Example 3 at a concentration of 10^-6 M results in a 93% intensification of contraction.

calcium channels = assay: displacement of tritium-labeled nitrendipine from membrane preparations containing isolated calcium channels; type: binding
Protocol: Their action on the calcium channels can be shown using the biochemical test model of the displacement of tritium-labeled nitrendipine. In this test, membrane preparations which contain isolated calcium channels are loaded with the labeled substance. After incubation with the test substance, the radioactivity released and the radioactivity remaining on the membrane are determined. The IC50 values shown by the compounds of the formula I, according to the invention, in this model are from 10^-6 molar to 10^-10 molar.

| IC50 (calcium channels) [nM] | Structure (SMILES) | activation at 1 µM (isolated rabbit aorta; calcium agonistic action, read-out: intensification of contraction) [%] | inhibition at 1 µM (isolated rabbit aorta; calcium antagonistic action, read-out: diminution in contraction) [%] |
| --- | --- | --- | --- |
|  | COc1cc(CCN2CCN(C/C=C\COc3ccccc3[C@@]3(C(C)C)Sc4ccccc4N(C)C3=O)CC2)cc(OC)c1OC [Example 3, (R)-2-isopropyl-4-methyl-2-[2-[4-[4-(3,4,5-trimethoxyphenethyl)-1-piperazinyl]-2-cis-buten-1-yloxy]phenyl]-2H-1,4-benzothiazin-3(4H)-one dihydrochloride] | 93 |  |
| 0.12 | COc1cc(CCN2CCN(CC#CCOc3ccccc3[C@@]3(C(C)C)Sc4ccccc4N(C)C3=O)CC2)cc(OC)c1OC [Example 2, (R)-2-Isopropyl-4-methyl-2-[2-[4-[4-(3,4,5-trimethoxyphenethyl)-1-piperazinyl]-2-butyn-1 yloxy]phenyl]-2H-1,4-benzothiazin-3(4H)-one dihydrochloride] |  | 32 |
